Source: patent US4172118A, “Diphenylamine containing therapeutic composition and its applications, particularly in veterinary medicine” (METABIO, priority 1976, dated 1979)

Columns and labels:
[1] = Acute toxicity of hexachlorophene with/without diphenylamine in mice (death rate); assay type: in vivo, mice (male); conditions: mouse, in vivo, 7 days, combination: diphenylamine 1.5 mg/kg oral one-half hour prior
Experimental: (§1) Acute toxicity tests were conducted in mice. The death rate noted in mice administered hexachlorophene alone was compared with that noted in mice which were administered the same dosages of hexachlorophene, but which had previously been protected by administration of diphenylamine.
(§2) Ten groups of 10 male mice each were used in such experiments. Five reference groups were given hexachlorophene alone, at increasing dosages. The five other groups were administered diphenylamine at a dosage of 1.5 mg/kg one-half hour prior to administration of the same hexachlorophene dosages as the reference animals. Both compounds were administered orally, using peanut oil as the excipient.
(§3) The data relating to the death rate variations in both groups, with respect to the dosages of compound used, are set forth in the following Table.

Limousin ewes = assay: Hexachlorophene intoxication in ewes, clinical signs and weight; assay type: in vivo
Experimental: 5. Two groups of non-pregnant Limousin ewes, weighing from 45 to 52 kg, were intoxicated with hexachlorophene at a dosage of 90 mg/kg, administered orally; whereas the generally used therapeutic dosage is 10 mg/kg.
The clinical signs, and particularly the variation of the weight curve, were noted over a 5 day period of time.
One of the groups was simultaneously administered 2 mg/kg diphenylamine, by the same route of administration.

sheep = assay: Hexachlorophene oral intoxication in sheep with/without diphenylamine (deaths); assay type: in vivo; conditions: for Number of sheep killed: of 5 sheep
Experimental: 7. Six groups of 5 sheep each were orally intoxicated with increasing dosages of hexachlorophene (135-142.5-150 mg/kg) with or without diphenylamine.

mice [2] = assay: Acute toxicity of bithionol sulfoxide with/without diphenylamine in mice (death rate); assay type: in vivo, mice (male); conditions: mice, oral; conclusion in words
Experimental: (§4) The acute toxicity of bithionol sulfoxide was compared with that of a combination of 20 parts bithionol sulfoxide per part diphenylamine.
(§5) Ten groups of 10 male mice each were used for this test. Five reference groups were administered increasing dosages of bithionol sulfoxide alone. The five other groups were administered the bithionol sulfoxide+diphenylamine combination. The test materials were administered orally.
(§6) The data relating to the death rate variations in both groups, with respect to the dosages of product used, are set forth in the following Table.

mice [3] = assay: Acute toxicity of hexachlorophene with/without diphenylamine in mice (death rate); assay type: in vivo, mice (male); conditions: mice, oral; conclusion in words
Experimental: as §1, §2, §3

Nematodes = conditions: in dogs; C.A., Vol. 35, 197, 9; cited from earlier work
[4] = system: serum glutamic oxalacetic transaminase (S.G.O.T.); assay: Carbon tetrachloride intoxication in ewes, S.G.O.T. level; assay type: in vivo, Ile-de-France ewes; conditions: CCl4 3600 mg/kg sub-cutaneous
Experimental: 4. Two groups of non-pregnant Ile-de-France ewes, weighing from 46 to 68 kg, were intoxicated with carbon tetrachloride administered sub-cutaneously at a dosage of 3600 mg/kg, as a suspension in vaseline oil.
The second group alone was simultaneously administered diphenylamine at a dosage of 100 mg/kg.
The criterion used to evaluate the magnitude of the intoxication was the variation of the serum glutamic oxalacetic transaminase (S.G.O.T.) level.
In the following Table, the percent increase of said serum levels is given with respect to the level determined prior to the intoxication.

[5] = C.A., Vol. 54 17708g; cited from earlier work
myases = conditions: in animals; Merck Index, 8th Ed., p. 387; cited from earlier work
[6] = C.A., Vol. 50-15949d; cited from earlier work
liver = assay: Pentobarbital-induced sleeping test in mice (hepato-toxicity of carbon tetrachloride); assay type: in vivo; conditions: CCl4 0.075 ml/kg; protected group with diphenylamine 4 mg/kg; reference group 20 mn
Experimental: 3. […] This test provides a measure of the capability of the liver to metabolize some toxic materials. The principle is as follows: in normal mice, a certain sleeping time is induced by a certain dosage of pentobarbital; in mice which have been administered 48 hours previously a hepato-toxic material, the same pentobarbital dosage induces a longer sleeping time, because the injured liver has greater difficulty in metabolizing pentobarbital; on administration of a supposedly detoxicant material 24 hours after the toxic material, one may examine whether sleeping time is reduced or not and, thus, may quantify the resulting protection.
This test is effected using carbon tetrachloride as toxicant at a dosage of 0.075 ml/kg, and diphenylamine as protective material at a dosage of 4 mg/kg.

[7] = Acute toxicity of bithionol sulfoxide with/without diphenylamine in mice (death rate); assay type: in vivo, mice (male); conditions: mouse, in vivo, 7 days
Experimental: as §4, §5, §6

[8] = hexachlorophene 90 mg/kg oral, 5 days, protected group with diphenylamine 2 mg/kg oral

## Oc1c(Cl)cc(Cl)c(Cl)c1Cc1c(O)c(Cl)cc(Cl)c1Cl [hexachlorophene]
[1]; hexachlorophene 109.6 mg/kg oral
  mortality at 168 h: 10%
[1]; hexachlorophene 128.2 mg/kg oral
  mortality at 168 h: 20%
[1]; hexachlorophene 150 mg/kg oral
  mortality at 168 h: 20%
[1]; hexachlorophene 175.5 mg/kg oral
  mortality at 168 h: 40%
[1]; hexachlorophene 205.3 mg/kg oral
  mortality at 168 h: 60%
Limousin ewes; hexachlorophene 90 mg/kg oral, 5 days, one animal of the group
  convulsions: in one animal of the group, convulsions were observed
Limousin ewes; [8]
  clinical signs: a sustained state of exhaustion was noted in the animals throughout the observation period
  loss of weight (in words): General loss of weight was noted
Limousin ewes; hexachlorophene 90 mg/kg oral, unprotected group
  decrease of the weight within five days: 14.38%
Limousin ewes; hexachlorophene 90 mg/kg oral, unprotected after five days (48.6 kg before), protected with diphenylamine 2 mg/kg, remained stable
  average weight: 41.66 kg
sheep; hexachlorophene 135 mg/kg oral, diphenylamine 0 or 1.58 mg/kg
  Number of sheep killed: 1
sheep; hexachlorophene 142.5 mg/kg oral, diphenylamine 0 or 1.67 mg/kg
  Number of sheep killed: 4
sheep; hexachlorophene 150 mg/kg oral, diphenylamine 0 or 1.76 mg/kg
  Number of sheep killed: 5

## c1ccc(Nc2ccccc2)cc1 [diphenylamine]
Mice [2]
  bithionol sulfoxide-induced acute toxicity: reduces the bithionol sulfoxide-induced acute toxicity in mice
Mice [3]
  hexachlorophene-induced acute toxicity: reduces the hexachlorophene-induced acute toxicity in mice
Nematodes
  action against certain Nematodes: against certain Nematodes in dogs
Limousin ewes; hexachlorophene 90 mg/kg, diphenylamine 2 mg/kg, oral, conclusion in words
  weight stabilization and reduction of the clinical signs: weight stabilization and the most substantial reduction of the clinical signs
[4]; diphenylamine 100 mg/kg
  S.G.O.T. level increase (in words): S.G.O.T. level increases in a significantly reduced manner
sheep; hexachlorophene 135-142.5-150 mg/kg oral, sheep
  death rate (in words): significant decrease of the death rate
[5]
  anticonvulsant activity: anticonvulsant activity
myases
  action against certain myases: action against certain myases
[6]
  antiparasitic activity: antiparasitic activity

## ClC(Cl)(Cl)Cl [CCl4, carbon tetrachloride]
[4]; vs level prior to intoxication, Group II with diphenylamine 100 mg/kg simultaneously
  Percent S.G.O.T. increase: 91%
liver
  Sleeping time: 109 mn

## [O-][S+](c1cc(Cl)cc(Cl)c1O)c1cc(Cl)cc(Cl)c1O [bithionol sulfoxide]
[7]; bithionol sulfoxide 450 mg/kg oral, Group II with diphenylamine 22.5 mg/kg
  mortality at 168 h: 0%
[7]; bithionol sulfoxide 600 mg/kg oral, Group II with diphenylamine 30 mg/kg
  mortality at 168 h: 10%
[7]; bithionol sulfoxide 800 mg/kg oral, Group II with diphenylamine 40 mg/kg
  mortality at 168 h: 20%
[7]; bithionol sulfoxide 1066 mg/kg oral, Group II with diphenylamine 53 mg/kg
  mortality at 168 h: 40%
[7]; bithionol sulfoxide 1420 mg/kg oral, Group II with diphenylamine 71 mg/kg
  mortality at 168 h: 30%
